Where a name gives a salt, the structure may show the parent alone. Values belong to the molecule of their own block, whether it stands above or below them.
Assays:
Format in all cases: physicochemical
[1] = Water activity experiments in MeOH/water (relative stability of hydrate Pattern A and hydrate Pattern B); conditions: methanol/water
Experimental: The relative stability of the hydrate Pattern A and the hydrate Pattern B was investigated using water activity experiments in MeOH/water systems. About 5 mg of (S)-4-((2-methoxyethyl)(4-(5,6,7,8-tetrahydro-1,8-naphthyridin-2-yl)butyl)amino)-2-(quinazolin-4-ylamino)butanoic acid L-tartaric acid cocrystal Pattern A and 5 mg of (S)-4-((2-methoxyethyl)(4-(5,6,7,8-tetrahydro-1,8-naphthyridin-2-yl)butyl)amino)-2-(quinazolin-4-ylamino)butanoic acid L-tartaric acid cocrystal Pattern B were added to 0.1-0.5 mL saturated solutions of the methanol/water system. Obtained suspensions were stirred at 5° C., 25° C. and 50° C. for up to 21 days, respectively. Solid parts (wet cakes) were isolated by centrifugation filtration and investigated by XRPD.

[2] = Equilibration of Pattern C suspension in IPA/water at 5° C.; conditions: IPA/water mixture, equilibration at 5° C., after 3 days
Experimental: Method 2: (S)-4-((2-methoxyethyl)(4-(5,6,7,8-tetrahydro-1,8-naphthyridin-2-yl)butyl)amino)-2-(quinazolin-4-ylamino)butanoic acid L-tartaric acid cocrystal Pattern C was prepared using the following procedure. 200 mg of (S)-4-((2-methoxyethyl)(4-(5,6,7,8-tetrahydro-1,8-naphthyridin-2-yl)butyl)amino)-2-(quinazolin-4-ylamino)butanoic acid L-tartaric acid cocrystal Pattern A (see Example 1) was dissolved in 1.8 mL of IPA/water (7:3, v:v) at 50° C. The obtained thin suspension was filtered through a 0.45 μm syringe membrane filter to obtain a clear solution. The clear solution was cooled to 5° C. at 0.1° C./min after stirring at 50° C. for about 30 min. After stirred at 5° C. for about 2 days, a suspension was obtained. Solids were collected by centrifugation and investigated by XRPD. A low crystallinity Pattern C was obtained.
The suspension was kept stirring at 5° C. for another 3 days. Solids were collected by centrifugation and investigated by XRPD. A low crystalline Pattern B was obtained.

[3] = Bulk stability of solid under temperature/humidity stress (HPLC, appearance, XRPD)
Experimental: Bulk stability of (S)-4-((2-methoxyethyl)(4-(5,6,7,8-tetrahydro-1,8-naphthyridin-2-yl)butyl)amino)-2-(quinazolin-4-ylamino)butanoic acid L-tartaric acid cocrystal Pattern A was evaluated at 25° C./92.5% RH in an open container, at 40° C./75% RH in an open container, and at 60° C. in a closed container over 1 week and 4 weeks.
However, it became deliquescent after being stressed at 25° C./92.5% RH in an open container and at 40° C./75% RH in an open container after 1 week.

[4] = Solubility at 37° C. in aqueous and biorelevant media; conditions: for Solubility (mg/ mL) 2 h / Solubility (mg/ mL) 24 h: target 250 mg/mL (in free form)
Experimental: To prepare the samples of (S)-4-((2-methoxyethyl)(4-(5,6,7,8-tetrahydro-1,8-naphthyridin-2-yl)butyl)amino)-2-(quinazolin-4-ylamino)butanoic acid L-tartaric acid cocrystal Pattern A, 80.6 mg was weighed into a 2 mL glass vial. Next, 0.18 mL of solubility medium was added. The salt amount used is equivalent to 45 mg of the amorphous free form. Obtained suspensions/solutions were stirred at 37° C. at 400 rpm and sampled at 2 h and at 24 h. The samples were centrifuged at 37° C. at 14,000 rpm for 5 min. Supernatants were analyzed by HPLC and pH meter for solubility and pH value, respectively. […]

[5] = Bulk stability of solid under temperature/humidity stress (HPLC, appearance, XRPD); conditions: for Bulk appearance (color change / deliquescence): Solid state, open container, 1 week
[6] = Solid state, 60° C., closed container, 1 week
[7] = pH 4.5 acetate buffer (50 mM), 37° C.
[8] = pH 6.8 phosphate buffer (50 mM), 37° C.

water activity (a.w.) at which the pattern was obtained ([1]; 5° C.): 1.0
water activity (a.w.) at which the pattern was obtained ([1]; 25° C.): 1.0
SMILES: COCCN(CCCCc1ccc2c(n1)NCCC2)CC[C@H](Nc1ncnc2ccccc12)C(=O)O [Pattern B, (S)-4-((2-methoxyethyl)(4-(5,6,7,8-tetrahydro-1,8-naphthyridin-2-yl)butyl)amino)-2-(quinazolin-4-ylamino)butanoic acid]

form conversion [2]: converts to Pattern B
SMILES: COCCN(CCCCc1ccc2c(n1)NCCC2)CC[C@H](Nc1ncnc2ccccc12)C(=O)O [Pattern C, (S)-4-((2-methoxyethyl)(4-(5,6,7,8-tetrahydro-1,8-naphthyridin-2-yl)butyl)amino)-2-(quinazolin-4-ylamino)butanoic acid]

purity decrease ([3]; 25° C./92.5% RH in an open container, 4 weeks): 0.6%
physical stability ([3]; 60° C. in a closed container over 4 weeks): physically stable
purity decrease ([3]; 60° C. in a closed container, 4 weeks): 1.1%
Bulk (HPLC) purity, 316 nm ([3]; Solid state, 25° C./92.5% RH, open container, 1 week): 99.7%
Bulk (HPLC) purity, 316 nm ([3]; Solid state, 25° C./92.5% RH, open container, 4 weeks): 99.2%
Bulk (HPLC) purity, 316 nm ([3]; Solid state, 40° C./75% RH, open container, 1 week): 98.7%
Bulk (HPLC) purity, 316 nm ([3]; Solid state, 40° C./75% RH, open container, 4 weeks): 97.3%
Bulk (HPLC) purity, 316 nm [3, 6]: 99.3%
Bulk (XRPD) [3, 6]: No form change
Bulk (HPLC) purity, 316 nm ([3]; Solid state, 60° C., closed container, 4 weeks): 98.7%
pH of supernatant at 24 h ([4]; FaSSGF, pH 1.6, 37° C.): (5.8)
Solubility (mg/ mL) 2 h ([4]; FaSSGF, pH 1.6, 37° C.): >247 mg/mL
Solubility (mg/ mL) 24 h ([4]; FaSSGF, pH 1.6, 37° C.): >247 mg/mL
pH of supernatant at 24 h ([4]; FaSSIF-v1, pH 6.5, 37° C.): (5.9)
Solubility (mg/ mL) 2 h ([4]; FaSSIF-v1, pH 6.5, 37° C.): >213 mg/mL
Solubility (mg/ mL) 24 h ([4]; FaSSIF-v1, pH 6.5, 37° C.): >214 mg/mL
pH of supernatant at 24 h ([4]; FeSSIF-v1, pH 5.0, 37° C.): (5.8)
Solubility (mg/ mL) 2 h ([4]; FeSSIF-v1, pH 5.0, 37° C.): >214 mg/mL
Solubility (mg/ mL) 24 h ([4]; FeSSIF-v1, pH 5.0, 37° C.): >218 mg/mL
pH of supernatant at 24 h ([4]; Water, 37° C.): (5.8)
Solubility (mg/ mL) 2 h ([4]; Water, 37° C.): >247 mg/mL
Solubility (mg/ mL) 24 h ([4]; Water, 37° C.): >247 mg/mL
pH of supernatant at 24 h ([4]; pH 1.2 HCl buffer, 37° C.): (1.6)
Solubility (mg/ mL) 2 h ([4]; pH 1.2 HCl buffer, 37° C.): >208 mg/mL
Solubility (mg/ mL) 24 h ([4]; pH 1.2 HCl buffer, 37° C.): >208 mg/mL
pH of supernatant at 24 h [4, 7]: (4.8)
Solubility (mg/ mL) 2 h [4, 7]: >228 mg/mL
Solubility (mg/ mL) 24 h [4, 7]: >228 mg/mL
pH of supernatant at 24 h [4, 8]: (6.7)
Solubility (mg/ mL) 2 h [4, 8]: >229 mg/mL
Solubility (mg/ mL) 24 h [4, 8]: >229 mg/mL
purity decrease ([5]; 40° C./75% RH in an open container, 4 weeks): 2.5%
Bulk appearance (color change / deliquescence) ([5]; 25° C./92.5% RH): deliquescent
Bulk appearance (color change / deliquescence) ([5]; 40° C./75% RH): deliquescent
SMILES: COCCN(CCCCc1ccc2c(n1)NCCC2)CC[C@H](Nc1ncnc2ccccc12)C(=O)O [Phosphate salt, hydrate, (S)-4-((2-methoxyethyl)(4-(5,6,7,8-tetrahydro-1,8-naphthyridin-2-yl)butyl)amino)-2-(quinazolin-4-ylamino)butanoic acid, reference compound]

From US20250197393A1, “INTEGRIN INHIBITOR AND USES THEREOF” (Pliant Therapeutics, Inc., priority 2023, published 2025)
